Read-outs that look alike come from different tables or passages of the source.
Columns and labels:
[1] = DCM
[2] = biological target: EGFR (D770_N771insNPG) (Homo sapiens (Human), UniProt P00533, INS770NPG); test: Potency of EGFR (D770_N771insNPG) enzymatic activity inhibition (ADP-Glo luminescence); type: biochemical; details: recombinant EGFR (D770_N771insNPG) 1.5 nM, Poly(Glu, Tyr) substrate, ATP, 1 h at rt
Method: Example B. Primary Assay Used to Determine Potency of EGFR (D770_N771insNPG) Enzymatic Activity Inhibition
Compounds activity was determined using recombinant EGFR (D770 N771insNPG) protein (SignalChem, #E10-132GG-10) and Poly(Glu, Tyr) substrate (Sigma-Aldrich, #P0275) in an in vitro enzymatic reaction. The enzymatic assay used to determine activity was a Luminescence assay using a Microplate Reader ClarioStar Plus. The enzymatic reaction was carried out in assay buffer (40 mM TRIS-HCl pH 7.4-7.6, 20 mM MgCl2, 2.5 mM MnCl2, 0.05 mM DTT, 0.1 mg/ml BSA). The compounds were dispensed on a 384 well Diamond Well Plate (Axigen, Cat #P-384-120SQ-C—S) using the Biomek FX liquid handling system at 80× solutions of compounds in DMSO. 2× Protein-Substrate mix (final concentration 1.5 nM of EGFR (D770_N771insNPG) and 50 ng/μl of Poly(Glu, Tyr)) was prepared in 1× Assay buffer and 4 µl of mixture per well was added into 384w white Reaction plate with NBS (Coming, Cat #4513). 4 μl of Poly(Glu, Tyr) substrate w/o EGFR in 1× buffer was used for negative control. Plates were centrifuged for 1 min at 200 g. Next step the Compounds were added to Reaction plate using Biomek station via following steps: 1 μl of 80× compounds (in DMSO) were mixed thoroughly with 39 μl of 2× 10 μM ATP in Assay Buffer, then 4 μl of this mixture was added to Reaction plate with 4 μl of Protein-Substrate mix. Plates were centrifuged for 1 min at 200 g and incubated for 1 h at rt. Next 4 μL of ADP-Glo reagent (Promega, ADP-Glo™ Kinase Assay, Cat #V9102) per well was added. Plates were incubated for 30 min at rt. Then 8 μL of Kinase detection reagent (Promega, ADP-Glo™ Kinase Assay, Cat #V9102) per well was added and the Luminescence was measured using Microplate Reader. The % inhibition was then used to calculate the EC50 values. The values of EC50 shown as a letters A-E, where: A<0.001 μM; 0.001 μM<B<0.005 μM; 0.005 μM<C<0.01 μM; 0.01<D<0.05 μM; E>0.05.

[3] = biological target: EGFR (WT) (Homo sapiens (Human), UniProt P00533); test: Potency of EGFR enzymatic activity inhibition (WT) (ADP-Glo luminescence); type: biochemical; details: recombinant EGFR (WT) 4 nM, Poly(Glu, Tyr) substrate, ATP, 1 h at rt
EGFR (WT), sequence (P00533 25-1210): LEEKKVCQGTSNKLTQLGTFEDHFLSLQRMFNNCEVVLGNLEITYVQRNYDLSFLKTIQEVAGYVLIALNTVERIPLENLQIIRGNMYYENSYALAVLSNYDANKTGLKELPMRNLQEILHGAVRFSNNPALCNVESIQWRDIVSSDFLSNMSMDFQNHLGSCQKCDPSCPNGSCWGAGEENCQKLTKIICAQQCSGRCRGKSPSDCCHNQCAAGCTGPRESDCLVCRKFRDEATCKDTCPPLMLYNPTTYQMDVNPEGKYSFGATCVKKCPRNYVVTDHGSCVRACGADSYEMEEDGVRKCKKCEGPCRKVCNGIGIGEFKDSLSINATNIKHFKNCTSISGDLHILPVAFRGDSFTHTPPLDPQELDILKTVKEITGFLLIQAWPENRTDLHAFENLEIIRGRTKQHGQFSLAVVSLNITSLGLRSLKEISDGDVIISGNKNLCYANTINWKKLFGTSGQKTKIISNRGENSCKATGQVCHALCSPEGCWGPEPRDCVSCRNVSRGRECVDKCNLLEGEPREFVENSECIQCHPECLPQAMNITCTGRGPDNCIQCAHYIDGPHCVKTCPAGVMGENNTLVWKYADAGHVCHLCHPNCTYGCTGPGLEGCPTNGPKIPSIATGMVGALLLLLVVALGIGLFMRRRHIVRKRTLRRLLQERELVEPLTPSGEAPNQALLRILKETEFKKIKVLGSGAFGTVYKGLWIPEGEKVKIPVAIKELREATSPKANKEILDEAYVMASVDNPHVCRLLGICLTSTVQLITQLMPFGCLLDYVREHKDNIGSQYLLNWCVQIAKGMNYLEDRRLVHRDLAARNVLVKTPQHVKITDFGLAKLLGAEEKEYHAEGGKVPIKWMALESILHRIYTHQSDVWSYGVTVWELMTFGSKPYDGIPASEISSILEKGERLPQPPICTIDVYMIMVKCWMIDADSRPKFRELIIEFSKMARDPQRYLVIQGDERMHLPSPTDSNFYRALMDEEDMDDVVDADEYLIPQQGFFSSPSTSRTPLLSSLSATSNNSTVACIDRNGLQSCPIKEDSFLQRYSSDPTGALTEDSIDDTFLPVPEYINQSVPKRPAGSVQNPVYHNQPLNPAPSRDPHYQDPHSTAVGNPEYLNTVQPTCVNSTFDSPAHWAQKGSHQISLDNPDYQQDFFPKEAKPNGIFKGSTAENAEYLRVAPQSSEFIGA
Method: Example D. Primary Assay Used to Determine Potency of EGFR enzymatic activity Inhibition (WT)
Compound activity was determined using recombinant EGFR protein (SignalChem, #E10-112G-10) and Poly(Glu, Tyr) substrate (Sigma-Aldrich, #P0275) in an in vitro enzymatic reaction. The enzymatic assay used to determine activity was a Luminescence assay using a Microplate Reader ClarioStar Plus. The enzymatic reaction was carried out in assay buffer (40 mM TRIS-HCl pH 7.4-7.6, 20 mM MgCl2, 2.5 mM MnCl2, 0.05 mM DTT, 0.1 mg/ml BSA). The compounds were dispensed on a 384 well Diamond Well Plate (Axigen, Cat #P-384-120SQ-C—S) using the Biomek FX liquid handling system at 80× solutions of compounds in DMSO. 2× Protein-Substrate mix (final concentration 4 nM of EGFR and 50 ng/μl of Poly(Glu, Tyr)) was prepared in 1× Assay buffer and 4 μl of mixture per well was added into 384w white Reaction plate with NBS (Coming, Cat #4513). 4 μl of Poly(Glu, Tyr) substrate w/o EGFR in 1× buffer was used for negative control. Plates were centrifuged for 1 min at 200 g. Next step the Compounds were added to Reaction plate using Biomek station via following steps: 1 μl of 80× compounds (in DMSO) were mixed thoroughly with 39 μl of 2× 10 μM ATP in Assay Buffer, then 4 μl of this mixture was added to Reaction plate with 4 μl of Protein-Substrate mix. Plates were centrifuged for 1 min at 200 g and incubated for 1 h at rt. Next 4 μL of ADP-Glo reagent (Promega, ADP-Glo™ Kinase Assay, Cat #V9102) per well was added. Plates were incubated for 30 min at rt. Then 8 μL of Kinase detection reagent (Promega, ADP-Glo™ Kinase Assay, Cat #V9102) per well was added and the Luminescence was measured using Microplate Reader. The % inhibition was then used to calculate the EC50 values. The results for certain compounds are presented in the Table D. The values of EC50 shown as a letters A-E, where: A<0.001 μM; 0.001 μM<B<0.005 μM; 0.005 μM<C<

[4] = system: Ba/F3 (EGFRwt); test: Cellular growth inhibition assay (CellTiter-Glo), Ba/F3 (EGFRwt); type: cell-based; details: Mus musculus, BaF3, 72 h; Ba/F3 (Wild type) with 10 ng/ml rhEGF, 3 days of incubation
Method: Example E. Cellular Growth Inhibition Assay
Ba/F3(Empty vector) (Signosis), Ba/F3(Wild type) (Signosis), Ba/F3(L^858R+T790M) (Signosis), Ba/F3(A767_dupASV) (Signosis), Ba/F3(D770_N771insSVD) (Signosis), Ba/F3(H773_V774insNPH) (Signosis) were seeded at a density of 4000 cells per well in a CellBIND® 384-well Flat Clear Bottom Black Polystyrene Microplates (Coming, USA, Cat #3770) in 45 μl total volume of RPMI (PanEco, Cat #C330, Russia) with […] (HyClone, Cat #SV30160.03) and with 10 ng/ml rmIL-3 (RD systems, USA, Cat #403-ML-025) (for BaBF3(Empty vector)) and with 10 ng/ml rhEGF (ThermoFisher, USA, Cat #PHG0311L) (for BaCF3(Wild type)). 500× compounds solutions in DMSO (Sigma Cat #D2650) were prepared into Cmpnds plate (DiamondWell Plate, Axigen, Cat #P-384-120SQ-C—S) and DMSO only control was included. 1.l of 500× compounds (Cmpnds plate) was added to 49 µl of culture medium into Dilution plate (Diamond Well Plate, Axigen, Cat #P-384-120SQ-C—S), mixed and then 5 μl of 10× compounds solutions were transferred to cells followed by centrifugation at 100 g for 1 min. Final DMSO concentration was 0.2% o. After 3 days of incubation 10.l of CellTiter-Glo (Promega, CAT #G7572) were added to the cells, plate was centrifuged at 100 g for 1 min and luminescence signal was measured using Microplate Reader (CLARIOStar).

[5] = system: Ba/F3 (L858R + T790M); test: Cellular growth inhibition assay (CellTiter-Glo), Ba/F3 (L858R+T790M); type: cell-based; details: Mus musculus, BaF3, 72 h; 3 days of incubation
Summary of the method: (§1)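 Ba/F3 cells expressing the EGFR variants were seeded at 4000 cells/well in RPMI with FBS, with 10 ng/ml rhEGF added for the wild-type line, and treated with compound at 0.2% final DMSO. Viability was read by CellTiter-Glo luminescence after 3 days.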

[6] = system: Ba/F3 (A767_dupASV); test: Cellular growth inhibition assay (CellTiter-Glo), Ba/F3 (A767_dupASV); type: cell-based; details: Mus musculus, BaF3, 72 h; 3 days of incubation; read-out: Ba/F3 (A767_dup ASV) CC50
Summary of the method: as §1

[7] = system: Ba/F3 (D770_N771insSVD); test: Cellular growth inhibition assay (CellTiter-Glo), Ba/F3 (D770_N771insSVD); type: cell-based; details: Mus musculus, BaF3, 72 h; 3 days of incubation; read-out: Ba/F3 (D770_N771 insSVD) CC50
Summary of the method: as §1

[8] = system: Ba/F3 (H773_V774insSVD); test: Cellular growth inhibition assay (CellTiter-Glo), Ba/F3 (H773_V774insSVD); type: cell-based; details: Mus musculus, BaF3, 72 h; 3 days of incubation; read-out: Ba/F3 (H773_V774 insSVD) CC50
[9] = Cellular growth inhibition assay (CellTiter-Glo), Ba/F3 (Empty vector); type: cell-based; details: mouse, Ba/F3 cells with empty vector; Ba/F3 (Empty vector) with 10 ng/ml rmIL-3, 3 days of incubation
Summary of the method: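 Ba/F3 cells carrying an empty vector were plated in 384-well black clear-bottom plates at 4000 cells per well in 45 μl RPMI containing FBS and 10 ng/ml rmIL-3. Compounds diluted from DMSO stocks were added as 5 μl of 10× solution, giving 0.2% DMSO. After 3 days, CellTiter-Glo was added and luminescence measured.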

[10] = rcm bond, 14-membered ring, Grubbs II (12 mol%), 10.0 mM, 50.0 °C

EGFR (D770_N771insNPG), sequence (P00533 other isoform, or with tags, fused parts or gaps del 1-694/ins NPG behind 770 limits assumed): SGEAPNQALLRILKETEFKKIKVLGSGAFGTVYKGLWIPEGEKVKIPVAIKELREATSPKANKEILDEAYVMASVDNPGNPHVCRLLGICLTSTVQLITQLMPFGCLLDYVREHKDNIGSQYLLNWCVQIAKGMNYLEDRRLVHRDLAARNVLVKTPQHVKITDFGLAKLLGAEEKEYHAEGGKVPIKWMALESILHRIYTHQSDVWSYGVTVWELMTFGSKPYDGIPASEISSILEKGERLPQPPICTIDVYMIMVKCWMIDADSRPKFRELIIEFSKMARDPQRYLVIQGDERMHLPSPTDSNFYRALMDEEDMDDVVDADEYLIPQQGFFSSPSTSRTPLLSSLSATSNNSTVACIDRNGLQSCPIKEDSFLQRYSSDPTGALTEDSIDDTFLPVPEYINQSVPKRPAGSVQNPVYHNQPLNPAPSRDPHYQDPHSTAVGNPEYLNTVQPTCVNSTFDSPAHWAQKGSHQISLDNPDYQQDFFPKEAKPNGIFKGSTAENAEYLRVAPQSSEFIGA

| Compound | EC50 [2] | EC50 [3] | CC50 [4] | CC50 [5] | CC50 [6] | CC50 [7] | CC50 [8] | CC50 at 3 days [9] | other results |
| --- | --- | --- | --- | --- | --- | --- | --- | --- | --- |
| COc1c(F)cccc1Nc1c2[nH]c3c1C(=O)NCC3CC=CCCOc1cnccc1-2 (stereo not drawn) | – | – | – | – | – | – | – | – | ring closure, isolated yield ([1]; from C=CCCOc1cnccc1-c1[nH]c2c(c1Nc1cccc(F)c1OC)C(=O)NCC2CC=C, rcm bond, 12-membered ring, Grubbs II (15 mol%), 10.0 mM, 50.0 °C): 71% |
| 19-[(3-Fluoro-2-methoxyphenyl)amino]-7,8,10,11,12,12a,13,14-octahydro-6H-7,9-methano-16,18-methenodipyrido[3,4-b:4′,3′-f][1,5,11]oxadiazacyclotetradecin-15(17H)-one | – | – | – | – | – | – | – | – | ring closure, isolated yield ([1]; amine bond, 14-membered ring, STAB/DIEA, 190.0 mM, 25.0 °C): 36% |
| 29-(3-Fluoro-2-methoxyanilino)-18,21-dioxa-1,6,10,15,24-pentaazapentacyclo[22.2.2.1^8,110^4,9.0^12,17]nonacosa-8,11(29),12(17),13,15-pentaene-2,7-dione | – | – | – | – | – | – | – | – | ring closure, yield after HPLC (amide bond, 18-membered ring, EDCI, DMF, 43.0 mM, 25.0 °C): 16% |
| COc1c(F)cccc1Nc1c2[nH]c3c1C(=O)NCC3C/C=C\COCCOc1cnccc1-2 (stereo not drawn) [Compound 104, (13Z)-23-[(3-fluoro-2-methoxyphenyl)amino]-8,11-dioxa-5,18,22-triazatetracyclo[18.2.10^2,7.0^16,21]tricosa-1(23),2,4,6,13,20-hexaen-19-one] | ≤ 1 nM | 1 to 5 nM | 100 to 1000 nM | 100 to 1000 nM | 0.1 to 1 nM | 10 to 100 nM | 100 to 1000 nM | > 10000 nM | – |
| COc1c(F)cccc1Nc1c2[nH]c3c1C(=O)NC[C@H]3CCCCOCCOc1cnccc1-2 [Compound 114, (16R)-23-[(3-Fluoro-2-methoxyphenyl)amino]-8,11-dioxa-5,18,22-triazatetracyclo[18.2.1.0^2,7.0^16,21]tricosa-1(23),2,4,6,20-pentaen-19-one] | 1 to 5 nM | 1 to 5 nM | 100 to 1000 nM | 100 to 1000 nM | 0.1 to 1 nM | 10 to 100 nM | 100 to 1000 nM | > 10000 nM | – |
| COc1c(F)cccc1Nc1c2[nH]c3c1C(=O)NC[C@@H]3CCCCOCCOc1cnccc1-2 [Compound 115] | 1 to 5 nM | 1 to 5 nM | 100 to 1000 nM | 100 to 1000 nM | 0.1 to 1 nM | 10 to 100 nM | 10 to 100 nM | > 10000 nM | – |
| (13E)-23-[(3-Fluoro-2-methoxyphenyl)amino]-8,11-dioxa-5,18,22-tniazatetracyclo[18.2.1.0^2,7.0^16′2]tricosa-1(23),2,4,6,13,20-hexaen-19-one | – | – | – | – | – | – | – | – | ring closure, isolated yield [1, 10]: 16% |
| (13Z)-23-[(3-fluoro-2-methoxyphenyl)amino]-8,11-dioxa-5,18,22-triazatetracyclo[18.2.10^2,7.0^16,21]tricosa-1(23),2,4,6,13,20-hexaen-19-one | – | – | – | – | – | – | – | – | ring closure, isolated yield [1, 10]: 4% |
| (19E)-28-[(3-Fluoro-2-methoxyphenyl)amino]-3,22-dioxa-6,11,15-triazapentacyclo[21.3.1^10,13.0^4,9.0^12,17]octacosa-1(27),4,6,8,10(28),12,19,23,25-nonaen-14-one | – | – | – | – | – | – | – | – | ring closure, yield after HPLC (rcm bond, 16-membered ring, Hoveyda-Grubbs II (10 mol%), DCM, 3.6 mM): 20% |
